We go through 15 compounds from patent US20240409585A1, “MACROCYCLIC IMMUNOMODULATORS” (priority 2021, published 2024).

Numbered stars: 1 amine (or outer) side, 2 acyl side, 3 side chain; on linkers, the order of the positions; unused ones are H or OH. Bridge positions count the residues as written; N and C are the ends. Square brackets hold non-standard residues; d marks the D form. Peptide text beside a SMILES is read from it. * marks the point of attachment. ξ: configuration not given here. Phe(4-COOH) = N[C@@H](Cc1ccc(C(=O)O)cc1)C(=O)O; X27 = O=C([C@H](Cc1ccc2ncccc2c1)N[*:1])[*:2]; dPhe(2,4-F2) = N[C@H](Cc1ccc(F)cc1F)C(=O)O; Bip = N[C@@H](Cc1ccc(-c2ccccc2)cc1)C(=O)O; Phe(3-Me) = Cc1cccc(C[C@H](N)C(=O)O)c1; dBta = N[C@H](Cc1csc2ccccc12)C(=O)O; Lys(Me2) = CN(C)CCCC[C@H](N)C(=O)O; 4Pal = N[C@@H](Cc1ccncc1)C(=O)O; Cha = N[C@@H](CC1CCCCC1)C(=O)O; Cit = NC(=O)NCCC[C@H](N)C(=O)O; Ile(3ξ) = CCC(C)[C@H](N)C(=O)O; Thr(3ξ) = CC(O)[C@H](N)C(=O)O; dOrn = NCCC[C@@H](N)C(=O)O; Carboxymethyl = O=C(O)C*; NMeA = CN[C@@H](C)C(=O)O; Nle = CCCC[C@H](N)C(=O)O; Orn = NCCC[C@H](N)C(=O)O; Dab = NCC[C@H](N)C(=O)O; Dap = NC[C@H](N)C(=O)O; ξC = NC(CS)C(=O)O

This experiment deals with T1, PE-labeled human PD-L1-Ig binding to Jurkat cell line over-expressing human PD-1 (Jurkat-PD-1) (Homo sapiens, UniProt Q15116).
T1 construct: expressed in transfected cells; host or cells: Jurkat
T1 sequence (Q15116 25-288): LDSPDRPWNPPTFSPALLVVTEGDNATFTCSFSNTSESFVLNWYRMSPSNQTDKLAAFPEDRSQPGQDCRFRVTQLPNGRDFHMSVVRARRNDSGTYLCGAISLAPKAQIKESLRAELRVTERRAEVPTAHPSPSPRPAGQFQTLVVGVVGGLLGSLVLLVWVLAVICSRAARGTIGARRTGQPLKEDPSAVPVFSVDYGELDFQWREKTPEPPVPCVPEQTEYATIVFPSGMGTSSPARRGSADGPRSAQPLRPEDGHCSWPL
As to the kind of experiment: Jurkat-PD-1 Cell Binding High-Content Screening Assay (CBA): Method 1. The note with it: Jurkat-hPD-1 cells, PE-labeled PD-L1-Ig 20 nM final; read-out: Jurkat HPDL1 PD1 IC50 (uM) (Method 1).
In general, IC50 refers to the point on the concentration scale where inhibition reaches its midpoint. As for `CC(C)C[C@@H]1NC(=O)[C@H](CCCNC(=N)N)NC(=O)[C@@H](Cc2ccc(F)cc2F)NC(=O)[C@H](C)N(C)C(=O)[C@H](CCCNC(=N)N)NC(=O)[C@H](Cc2ccc(-c3ccccc3)cc2)NC(=O)[C@H](C(C)C)NC(=O)[C@H](Cc2c[nH]c3ccccc23)NC(=O)[C@H](CC(=O)O)NC(=O)[C@H](Cc2ccc(O)cc2)NC(=O)[C@H](Cc2ccccc2)NC(=O)CSC[C@@H](C(=O)N[C@@H](C)C(N)=O)NC(=O)[C@H]([C@@H](C)O)NC(=O)[C@H](C(C)C)NC1=O` [Compound 1073] ({CH2CO}-FYDWV[Bip]R[NMeA][dPhe(2,4-F2)]RLVTCA-NH2; thioether N-14), the IC50 was determined as 0.13 µM.

Take `CCC(C)[C@@H]1NC(=O)[C@H](Cc2ccc(-c3ccccc3)cc2)NC(=O)[C@H](C(C)C)NC(=O)[C@H](Cc2cccc(C)c2)NC(=O)[C@H](CC(=O)O)NC(=O)[C@H](Cc2ccc(OCC(=O)O)cc2)NC(=O)[C@H](CCCCN(C)C)NC(=O)CSCC(C(=O)NCC(N)=O)NC(=O)[C@H](CO)NC(=O)[C@H](C(C)C)NC(=O)[C@H](CC(C)C)NC(=O)[C@H](CC(N)=O)NC(=O)[C@@H](CC(C)C)NC(=O)[C@H](C)N(C)C1=O` (stereo partly drawn) [Compound 2063] ({CH2CO}-[Lys(Me2)]Y(Carboxymethyl)D[Phe(3-Me)]V[Bip][Ile(3ξ)][NMeA][dL]NLVS[ξC]G-NH2; thioether N-14): the IC50 came out at 0.05 µM.

Consider `CC(C)C[C@@H]1NC(=O)[C@H](CC(N)=O)NC(=O)[C@@H](CC(C)C)NC(=O)[C@H](C)N(C)C(=O)[C@H](CCCNC(N)=O)NC(=O)[C@H](Cc2ccc(-c3ccccc3)cc2)NC(=O)[C@H](C(C)C)NC(=O)[C@H](Cc2c[nH]c3ccccc23)NC(=O)[C@H](CC(=O)O)NC(=O)[C@H](Cc2ccc(O)cc2)NC(=O)[C@H](Cc2ccccc2)NC(=O)CSC[C@@H](C(=O)N[C@@H](C)C(=O)N[C@@H](CCCN)C(=O)O)NC(=O)[C@H](CO)NC(=O)[C@H](C(C)C)NC1=O` [Compound 2237] ({CH2CO}-FYDWV[Bip][Cit][NMeA][dL]NLVSCA[Orn]-OH; thioether N-14), for which the concentration for half-maximal inhibition (IC50) came out at 0.01 µM.

Take `Cc1cccc(C[C@@H]2NC(=O)[C@H](CC(=O)O)NC(=O)[C@H](Cc3ccc(C(=O)O)cc3)NC(=O)[C@H](Cc3ccncc3)NC(=O)CSC[C@@H](C(N)=O)NC(=O)[C@H](CCCN)NC(=O)[C@H](C(C)C)NC(=O)[C@H](CC3CCCCC3)NC(=O)[C@H](CCN)NC(=O)[C@@H](CC(C)C)NC(=O)[C@H](C)N(C)C(=O)[C@H](CCCNC(N)=O)NC(=O)[C@H](Cc3ccc(-c4ccccc4)cc3)NC(=O)[C@H](C(C)C)NC2=O)c1` [Compound 1897] ({CH2CO}-[4Pal][Phe(4-COOH)]D[Phe(3-Me)]V[Bip][Cit][NMeA][dL][Dab][Cha]V[Orn]C-NH2; thioether N-14): the IC50 was 0.01 µM.

For `CCCC[C@@H]1NC(=O)[C@H](CC(N)=O)NC(=O)[C@@H](C)NC(=O)[C@H](C)N(C)C(=O)[C@H](C(C)C)NC(=O)[C@H](Cc2ccc(-c3ccccc3)cc2)NC(=O)[C@H](CC(C)C)NC(=O)[C@H](Cc2c[nH]c3ccccc23)NC(=O)[C@H](CC(=O)O)NC(=O)[C@H](Cc2ccc(O)cc2)NC(=O)[C@H](Cc2ccccc2)NC(=O)CSC[C@@H](C(=O)N[C@@H](C)C(N)=O)NC(=O)[C@H]([C@@H](C)O)NC(=O)[C@H](CCCCN)NC1=O` [Compound 1790] ({CH2CO}-FYDWL[Bip]V[NMeA][dA]N[Nle]KTCA-NH2; thioether N-14), the IC50 worked out at 0.13 µM.

With `CC(C)C[C@@H]1NC(=O)[C@H](CCCN)NC(=O)[C@@H](CC(C)C)NC(=O)[C@H](C)N(C)C(=O)[C@H](CCCNC(=N)N)NC(=O)[C@H](Cc2ccc(-c3ccccc3)cc2)NC(=O)[C@H](C(C)C)NC(=O)[C@H](Cc2c[nH]c3ccccc23)NC(=O)[C@H](CC(=O)O)NC(=O)[C@H](Cc2ccc(C(=O)O)cc2)NC(=O)[C@H](CC(N)=O)NC(=O)CSC[C@@H](C(=O)N[C@@H](C)C(N)=O)NC(=O)[C@H]([C@@H](C)O)NC(=O)[C@H](C(C)C)NC1=O` [Compound 1139] ({CH2CO}-N[Phe(4-COOH)]DWV[Bip]R[NMeA][dL][Orn]LVTCA-NH2; thioether N-14), the IC50 turned out to be 0.06 µM.

As to `Cc1cccc(C[C@@H]2NC(=O)[C@H](CC(=O)O)NC(=O)[C@H](Cc3ccc(OCC(=O)O)cc3)NC(=O)[C@H](CN)NC(=O)CSC[C@@H](C(=O)N[C@@H](CCN)C(N)=O)NC(=O)[C@H](CCCN)NC(=O)[C@H](C(C)C)NC(=O)[C@H](CC(C)C)NC(=O)[C@H](CCN)NC(=O)[C@@H](C)NC(=O)[C@H](C)N(C)C(=O)[C@H](Cc3ccc(O)cc3)NC(=O)[C@H](Cc3ccc(-c4ccccc4)cc3)NC(=O)[C@H](Cc3ccc(O)cc3)NC2=O)c1` [Compound 1874] ({CH2CO}-[Dap]Y(Carboxymethyl)D[Phe(3-Me)]Y[Bip]Y[NMeA][dA][Dab]LV[Orn]C[Dab]-NH2; thioether N-14), the IC50 was 0.28 µM.

As to `CC(=O)NCCCC[C@@H]1NC(=O)[C@H](C(C)C)NC(=O)[C@H](CC2CCCCC2)NC(=O)[C@H](CCN)NC(=O)[C@@H](CC(C)C)NC(=O)[C@H](C)N(C)C(=O)[C@H](CCC(N)=O)NC(=O)[C@H](Cc2ccc(-c3ccccc3)cc2)NC(=O)[C@H](C(C)C)NC(=O)[C@H](Cc2cccc(C)c2)NC(=O)[C@H](CC(=O)O)NC(=O)[C@H](Cc2ccc(OCC(=O)O)cc2)NC(=O)[C@H](Cc2ccc(OCC(=O)O)cc2)NC(=O)CSC[C@@H](C(=O)N[C@H](CCCN)C(N)=O)NC1=O` [Compound 2155] ({CH2CO}-Y(Carboxymethyl)Y(Carboxymethyl)D[Phe(3-Me)]V[Bip]Q[NMeA][dL][Dab][Cha]VK(Ac)C[dOrn]-NH2; thioether N-14), the 50% inhibitory concentration (IC50) worked out at 0.01 µM.

Take `CCCC[C@@H]1NC(=O)[C@H](CC(N)=O)NC(=O)[C@@H](C)NC(=O)[C@H](C)N(C)C(=O)[C@H](C(C)C)NC(=O)[C@H](Cc2ccc(-c3ccccc3)cc2)NC(=O)[C@H](CC(C)C)NC(=O)[C@H](Cc2c[nH]c3ccccc23)NC(=O)[C@H](CC(=O)O)NC(=O)[C@H](Cc2ccc(O)cc2)NC(=O)[C@H](Cc2ccccc2)NC(=O)CSC[C@@H](C(=O)N[C@@H](C)C(N)=O)NC(=O)[C@H]([C@@H](C)O)NC(=O)[C@H](CCCNC(=N)N)NC1=O` [Compound 1816] ({CH2CO}-FYDWL[Bip]V[NMeA][dA]N[Nle]RTCA-NH2; thioether N-14): the IC50 was determined as 0.32 µM.

Take `CCC(C)[C@@H]1NC(=O)[C@H](Cc2ccc(-c3ccccc3)cc2)NC(=O)[C@H](Cc2ccc(O)cc2)NC(=O)[C@H](Cc2cccc(C)c2)NC(=O)[C@H](CC(=O)O)NC(=O)[C@H](Cc2ccc(OCC(=O)O)cc2)NC(=O)[C@H](C(C)O)NC(=O)CSC[C@@H](C(=O)N[C@@H](CO)C(N)=O)NC(=O)[C@H](C(C)O)NC(=O)[C@H](C(C)C)NC(=O)[C@H](CC2CCCCC2)NC(=O)[C@H](CCN)NC(=O)[C@@H](CC(C)C)NC(=O)[C@H](C)N(C)C1=O` (stereo partly drawn) [Compound 2121] ({CH2CO}-[Thr(3ξ)]Y(Carboxymethyl)D[Phe(3-Me)]Y[Bip][Ile(3ξ)][NMeA][dL][Dab][Cha]V[Thr(3ξ)]CS-NH2; thioether N-14): the IC50 was 0.04 µM.

For the compound `CCC(C)[C@@H]1NC(=O)[C@H](Cc2ccc(-c3ccccc3)cc2)NC(=O)[C@H](Cc2cccc(C)c2)NC(=O)[C@H](Cc2c[nH]c3ccccc23)NC(=O)[C@H](CC(=O)O)NC(=O)[C@H](Cc2ccc(OCC(=O)O)cc2)NC(=O)[C@H](C(C)O)NC(=O)CSC[C@@H](C(=O)N[C@@H](CC(N)=O)C(=O)O)NC(=O)[C@H](CO)NC(=O)[C@H](C(C)C)NC(=O)[C@H](CC(C)C)NC(=O)[C@H](CCN)NC(=O)[C@@H](CC(C)C)NC(=O)[C@H](C)N(C)C1=O` (stereo partly drawn) [Compound 2222] ({CH2CO}-[Thr(3ξ)]Y(Carboxymethyl)DW[Phe(3-Me)][Bip][Ile(3ξ)][NMeA][dL][Dab]LVSCN-OH; thioether N-14), the IC50 was found to be 0.29 µM.

On to `CC(C)C[C@@H]1NC(=O)[C@H](CCN)NC(=O)[C@@H](CC(C)C)NC(=O)[C@H](C)N(C)C(=O)[C@H](CCCNC(N)=O)NC(=O)[C@H](Cc2ccc(-c3ccccc3)cc2)NC(=O)[C@H](C(C)C)NC(=O)[C@H](Cc2c[nH]c3ccccc23)NC(=O)[C@H](CC(=O)O)NC(=O)[C@H](Cc2ccc(O)cc2)NC(=O)[C@H](Cc2ccc3ncccc3c2)NC(=O)CSC[C@@H](C(=O)N[C@@H](C)C(N)=O)NC(=O)[C@H](C(C)O)NC(=O)[C@H](C(C)C)NC1=O` (stereo partly drawn) [Compound 2036] ({CH2CO}-[X27]YDWV[Bip][Cit][NMeA][dL][Dab]LV[Thr(3ξ)]CA-NH2; thioether N-14), for which the concentration for half-maximal inhibition (IC50) was 0.04 µM.

For the compound `CC(C)C[C@@H]1NC(=O)[C@H](CCCNC(=N)N)NC(=O)[C@@H](Cc2csc3ccccc23)NC(=O)[C@H](C)N(C)C(=O)[C@H](CCCNC(=N)N)NC(=O)[C@H](Cc2ccc(-c3ccccc3)cc2)NC(=O)[C@H](C(C)C)NC(=O)[C@H](Cc2c[nH]c3ccccc23)NC(=O)[C@H](CC(=O)O)NC(=O)[C@H](Cc2ccc(O)cc2)NC(=O)[C@H](CC(N)=O)NC(=O)CSC[C@@H](C(=O)N[C@@H](C)C(N)=O)NC(=O)[C@H]([C@@H](C)O)NC(=O)[C@H](C(C)C)NC1=O` [Compound 1181] ({CH2CO}-NYDWV[Bip]R[NMeA][dBta]RLVTCA-NH2; thioether N-14), the IC50 was found to be 0.34 µM.

With `CCC(C)[C@@H]1NC(=O)[C@H](Cc2ccc(-c3ccccc3)cc2)NC(=O)[C@H](C(C)C)NC(=O)[C@H](Cc2cccc(C)c2)NC(=O)[C@H](CC(=O)O)NC(=O)[C@H](Cc2ccc(C(=O)O)cc2)NC(=O)[C@H](Cc2ccncc2)NC(=O)CSC[C@@H](C(N)=O)NC(=O)[C@H](CCCN)NC(=O)[C@H](C(C)C)NC(=O)[C@H](CC2CCCCC2)NC(=O)[C@H](CCN)NC(=O)[C@@H](CC(C)C)NC(=O)[C@H](C)N(C)C1=O` (stereo partly drawn) [Compound 1899] ({CH2CO}-[4Pal][Phe(4-COOH)]D[Phe(3-Me)]V[Bip][Ile(3ξ)][NMeA][dL][Dab][Cha]V[Orn]C-NH2; thioether N-14), the IC50 was found to be 0.01 µM.

On to `CC(C)C[C@H]1NC(=O)[C@H](C)N(C)C(=O)[C@H](CCC(=O)O)NC(=O)[C@H](Cc2ccc(-c3ccccc3)cc2)NC(=O)[C@H](C(C)C)NC(=O)[C@H](Cc2c[nH]c3ccccc23)NC(=O)[C@H](CC(=O)O)NC(=O)[C@H](Cc2ccc(O)cc2)NC(=O)[C@H](C(C)O)NC(=O)CSC[C@@H](C(=O)NCC(N)=O)NC(=O)[C@H](C(C)O)NC(=O)[C@H](C(C)C)NC(=O)[C@H](CC2CCCCC2)NC(=O)[C@H](CCN)NC1=O` (stereo partly drawn) [Compound 2095] ({CH2CO}-[Thr(3ξ)]YDWV[Bip]E[NMeA][dL][Dab][Cha]V[Thr(3ξ)]CG-NH2; thioether N-14), for which the IC50 was found to be 0.04 µM.
